Columns and labels:
Experiment in all cases: relative viability (nuclei count vs DMSO), 5 days (fraction); higher = more cells survive
[1] = tested on: COR-L 105
How it was run: (§1)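 Medians of duplicate plates are given as relative viability. That measure is the nuclei count in treated wells divided by the count in vehicle wells. Counts were taken on 4× images of lung cancer cell lines in 1536-well plates, 5 days after pin-tool dosing the day after seeding with one drug alone or a fixed anchor-drug dose plus five library-drug doses (not always all listed) in √10 steps.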

[2] = tested on: LCLC-103H
How it was run: as §1

[3] = tested on: LK-2
How it was run: as §1

[4] = tested on: NCI-H1355
How it was run: as §1

[5] = tested on: NCI-H1648
How it was run: as §1

[6] = tested on: NCI-H1666
How it was run: as §1

[7] = tested on: NCI-H520
How it was run: as §1

[8] = tested on: NCI-H522
How it was run: as §1

**Q.** How did the relative viability ([1]; first compound 0.0002 µM) turn out when `CC(=O)O[C@@]12CO[C@@H]1C[C@H](O)[C@@]1(C)C(=O)[C@H](O)C3=C(C)[C@@H](OC(=O)[C@H](O)[C@@H](NC(=O)OC(C)(C)C)c4ccccc4)C[C@@](O)([C@@H](OC(=O)c4ccccc4)[C@H]21)C3(C)C` [Docetaxel] + Nc1nc2[nH]cc(CCc3ccc(C(=O)N[C@@H](CCC(=O)O)C(=O)O)cc3)c2c(=O)[nH]1 [Pemetrexed] (partner 0.2 µM) was run?
**A.** The relative viability was 1.06.

**Q.** What about the relative viability ([1]; first compound 0.000632 µM) of the same molecule?
**A.** Its relative viability is 1.12.

**Q.** And the relative viability ([1]; first compound 0.002 µM)?
**A.** The relative viability was 0.656.

**Q.** And the relative viability ([1]; first compound 0.006325 µM)?
**A.** The relative viability was 0.492.

**Q.** And the relative viability ([1]; first compound 0.02 µM)?
**A.** Its relative viability is 0.388.

**Q.** And the relative viability ([2]; first compound 0.0002 µM)?
**A.** Its relative viability is 0.495.

**Q.** What about the relative viability ([2]; first compound 0.000632 µM) of the same molecule?
**A.** Its relative viability is 0.54.

**Q.** What about the relative viability ([2]; first compound 0.002 µM) of the same molecule?
**A.** Its relative viability is 0.515.

**Q.** And the relative viability ([2]; first compound 0.006325 µM)?
**A.** Its relative viability is 0.6.

**Q.** What about the relative viability ([2]; first compound 0.02 µM) of the same molecule?
**A.** The relative viability was 0.492.

**Q.** What about the relative viability ([3]; first compound 0.0002 µM) of the same molecule?
**A.** Its relative viability is 0.172.

**Q.** And the relative viability ([3]; first compound 0.000632 µM)?
**A.** The relative viability was 0.217.

**Q.** What about the relative viability ([3]; first compound 0.002 µM) of the same molecule?
**A.** Its relative viability is 0.163.

**Q.** And the relative viability ([3]; first compound 0.006325 µM)?
**A.** Its relative viability is 0.119.

**Q.** What about the relative viability ([3]; first compound 0.02 µM) of the same molecule?
**A.** Its relative viability is 0.131.

**Q.** What about the relative viability ([4]; first compound 0.0002 µM) of the same molecule?
**A.** The relative viability was 1.09.

**Q.** What about the relative viability ([4]; first compound 0.000632 µM) of the same molecule?
**A.** The relative viability was 0.958.

**Q.** And the relative viability ([4]; first compound 0.002 µM)?
**A.** The relative viability was 0.789.

**Q.** What about the relative viability ([4]; first compound 0.006325 µM) of the same molecule?
**A.** The relative viability was 0.309.

**Q.** What about the relative viability ([4]; first compound 0.02 µM) of the same molecule?
**A.** Its relative viability is 0.198.

**Q.** And the relative viability ([5]; first compound 0.0002 µM)?
**A.** Its relative viability is 0.73.

**Q.** And the relative viability ([5]; first compound 0.000632 µM)?
**A.** Its relative viability is 0.758.

**Q.** And the relative viability ([5]; first compound 0.002 µM)?
**A.** The relative viability was 0.386.

**Q.** What about the relative viability ([5]; first compound 0.006325 µM) of the same molecule?
**A.** Its relative viability is 0.186.

**Q.** And the relative viability ([5]; first compound 0.02 µM)?
**A.** The relative viability was 0.231.

**Q.** What about the relative viability ([6]; first compound 0.0002 µM) of the same molecule?
**A.** The relative viability was 0.946.

**Q.** And the relative viability ([6]; first compound 0.000632 µM)?
**A.** Its relative viability is 0.808.

**Q.** And the relative viability ([6]; first compound 0.002 µM)?
**A.** The relative viability was 0.801.

**Q.** And the relative viability ([6]; first compound 0.006325 µM)?
**A.** Its relative viability is 0.858.

**Q.** And the relative viability ([6]; first compound 0.02 µM)?
**A.** The relative viability was 0.542.

**Q.** And the relative viability ([7]; first compound 0.0002 µM)?
**A.** Its relative viability is 0.691.

**Q.** What about the relative viability ([7]; first compound 0.000632 µM) of the same molecule?
**A.** Its relative viability is 0.471.

**Q.** And the relative viability ([7]; first compound 0.002 µM)?
**A.** The relative viability was 0.316.

**Q.** And the relative viability ([7]; first compound 0.006325 µM)?
**A.** Its relative viability is 0.207.

**Q.** What about the relative viability ([7]; first compound 0.02 µM) of the same molecule?
**A.** Its relative viability is 0.159.

**Q.** What about the relative viability ([8]; first compound 0.0002 µM) of the same molecule?
**A.** The relative viability was 1.06.

**Q.** And the relative viability ([8]; first compound 0.000632 µM)?
**A.** The relative viability was 0.814.

**Q.** And the relative viability ([8]; first compound 0.002 µM)?
**A.** Its relative viability is 0.737.

**Q.** And the relative viability ([8]; first compound 0.006325 µM)?
**A.** Its relative viability is 0.636.

**Q.** And the relative viability ([8]; first compound 0.02 µM)?
**A.** The relative viability was 0.355.

**Q.** How did the relative viability ([1]; first compound 0.04 µM) turn out when `Cc1sc2c(c1C)C(c1ccc(Cl)cc1)=N[C@@H](CC(=O)OC(C)(C)C)c1nnc(C)n1-2` [JQ1] + Nc1nc2[nH]cc(CCc3ccc(C(=O)N[C@@H](CCC(=O)O)C(=O)O)cc3)c2c(=O)[nH]1 [Pemetrexed] (partner 0.2 µM) was run?
**A.** The relative viability was 0.818.

**Q.** And the relative viability ([1]; first compound 0.1265 µM)?
**A.** The relative viability was 0.566.

**Q.** What about the relative viability ([1]; first compound 0.4 µM) of the same molecule?
**A.** Its relative viability is 0.742.

**Q.** And the relative viability ([1]; first compound 1.265 µM)?
**A.** Its relative viability is 0.385.

**Q.** What about the relative viability ([1]; first compound 4 µM) of the same molecule?
**A.** Its relative viability is 0.413.

**Q.** And the relative viability ([2]; first compound 0.04 µM)?
**A.** The relative viability was 0.44.

**Q.** What about the relative viability ([2]; first compound 0.1265 µM) of the same molecule?
**A.** The relative viability was 0.385.

**Q.** What about the relative viability ([2]; first compound 0.4 µM) of the same molecule?
**A.** The relative viability was 0.393.

**Q.** And the relative viability ([2]; first compound 1.265 µM)?
**A.** Its relative viability is 0.359.

**Q.** And the relative viability ([2]; first compound 4 µM)?
**A.** Its relative viability is 0.437.

**Q.** What about the relative viability ([3]; first compound 0.04 µM) of the same molecule?
**A.** The relative viability was 0.282.

**Q.** And the relative viability ([3]; first compound 0.1265 µM)?
**A.** The relative viability was 0.29.

**Q.** And the relative viability ([3]; first compound 0.4 µM)?
**A.** Its relative viability is 0.234.

**Q.** What about the relative viability ([3]; first compound 1.265 µM) of the same molecule?
**A.** Its relative viability is 0.16.

**Q.** What about the relative viability ([3]; first compound 4 µM) of the same molecule?
**A.** The relative viability was 0.158.

**Q.** What about the relative viability ([4]; first compound 0.04 µM) of the same molecule?
**A.** The relative viability was 1.05.

**Q.** And the relative viability ([4]; first compound 0.1265 µM)?
**A.** The relative viability was 1.04.

**Q.** And the relative viability ([4]; first compound 0.4 µM)?
**A.** The relative viability was 1.07.

**Q.** What about the relative viability ([4]; first compound 1.265 µM) of the same molecule?
**A.** Its relative viability is 0.893.

**Q.** And the relative viability ([4]; first compound 4 µM)?
**A.** The relative viability was 0.718.

**Q.** What about the relative viability ([5]; first compound 0.04 µM) of the same molecule?
**A.** The relative viability was 0.726.

**Q.** What about the relative viability ([5]; first compound 0.1265 µM) of the same molecule?
**A.** The relative viability was 0.817.

**Q.** What about the relative viability ([5]; first compound 0.4 µM) of the same molecule?
**A.** Its relative viability is 0.683.

**Q.** What about the relative viability ([5]; first compound 1.265 µM) of the same molecule?
**A.** The relative viability was 0.54.

**Q.** What about the relative viability ([5]; first compound 4 µM) of the same molecule?
**A.** The relative viability was 0.258.

**Q.** What about the relative viability ([6]; first compound 0.04 µM) of the same molecule?
**A.** Its relative viability is 0.801.

**Q.** What about the relative viability ([6]; first compound 0.1265 µM) of the same molecule?
**A.** Its relative viability is 0.786.

**Q.** And the relative viability ([6]; first compound 0.4 µM)?
**A.** Its relative viability is 0.697.

**Q.** And the relative viability ([6]; first compound 1.265 µM)?
**A.** The relative viability was 0.659.

**Q.** And the relative viability ([6]; first compound 4 µM)?
**A.** The relative viability was 0.602.

**Q.** What about the relative viability ([7]; first compound 0.04 µM) of the same molecule?
**A.** Its relative viability is 0.565.

**Q.** And the relative viability ([7]; first compound 0.1265 µM)?
**A.** Its relative viability is 0.536.

**Q.** And the relative viability ([7]; first compound 0.4 µM)?
**A.** Its relative viability is 0.491.

**Q.** What about the relative viability ([7]; first compound 1.265 µM) of the same molecule?
**A.** The relative viability was 0.307.

**Q.** What about the relative viability ([7]; first compound 4 µM) of the same molecule?
**A.** Its relative viability is 0.195.

**Q.** What about the relative viability ([8]; first compound 0.04 µM) of the same molecule?
**A.** Its relative viability is 0.929.

**Q.** And the relative viability ([8]; first compound 0.1265 µM)?
**A.** Its relative viability is 0.877.

**Q.** What about the relative viability ([8]; first compound 0.4 µM) of the same molecule?
**A.** The relative viability was 0.54.

**Q.** What about the relative viability ([8]; first compound 1.265 µM) of the same molecule?
**A.** Its relative viability is 0.59.

**Q.** And the relative viability ([8]; first compound 4 µM)?
**A.** Its relative viability is 0.444.

From the supplement of paper PMC10307832
